Test results: patent publication US4925848A, “Derivative of codeine useful as an agonist and process for the preparation of it” (Reckitt & Colman Products Limited, priority 1987, dated 1990)
In brackets after ≈: the same amount, converted by molar mass. Entries after “also recorded” stand apart in the source; their conditions may differ.

How the values were obtained:
delta opioid receptor = target: T1, delta opioid receptor (Mus musculus, UniProt P32300); test: Mouse vas deferens preparation (MVD), delta receptor (DAla-D-Leu enkephalin); type: cell-based; conditions: for Kb: antagonist of DAla-D-Leu enkephalin, read-out: ke, d
T1 construct: delta agonist DAla-D-Leu enkephalin
Excerpt: (§1) To obtain some insight into the profiles at opioid receptor subtypes compounds of formula III where R=H, Cl, Br and Me were therefore examined in isolated tissue preparations. Comparative data on the previously disclosed dehydro compounds of formula III is also included. The results obtained in the mouse was deferens preparation (MVD)(Henderson et al Brit J Pharmacol., 46,764, 1972) for these compounds are shown in Table 2. Although the unsubstituted compounds (R=H) were full agonists in this test situation no delta-agonist properties could be detected. […] The corresponding methyl and bromo dihydro compounds were antagonists with the rank order of affinities: mu>delta>kappa.
(§2) ke = Molar concentration of antagonist at which twice the concentration o
(§3) the agonist was required to produce the same response as that produced in
(§4) the absence of the antagonist; μ Agonist = Normorphine (NM); kAgonist
(§5) Ethylketocyclazocine; dAgonist = DAla-D-Leu Enkephalin.

opioid receptor subtypes = test: Mouse vas deferens preparation (MVD), agonist/antagonist profile at opioid receptor subtypes; type: cell-based; conditions: for rank order of affinities: antagonists
Excerpt: as §1, §2, §3, §4, §5

[1] = tested on: rat tail pressure antinociception; test: Rat tail pressure (RTP) antinociceptive test; type: in vivo; conditions: for agonist activity in the RPT test: in words
Excerpt: Compounds of formula III were initially examined in two antinociceptive tests (in vivo) to assess their analgesic potential and are shown in the following Table 1. These tests were:
(2) The rat tail pressure (RTP) which is described by Green and Young, (Br. J. Pharmac Chemother., 6,572, 1951).

[2] = tested on: morphine antagonist activity; conditions: s.c., reported in a response filed during prosecution of the corresponding U.S. application; cited from earlier work
kappa opioid receptor = test: Mouse vas deferens preparation (MVD), kappa receptor (ethylketocyclazocine); type: cell-based; conditions: in vitro MVD; antagonist of ethylketocyclazocine; read-out: ke, k
Excerpt: as §1, §2, §3, §4, §5

[3] = tested on: drug reinforcing effects in rhesus monkeys; test: Self-administration study in codeine-trained rhesus monkeys (drug reinforcing effects); type: in vivo, rhesus monkey; conditions: for response rates maintained compared with codeine: similar conditions, FIGS. 2 and 3
Experimental: Drug reinforcing effects were evaluated in rhesus monkeys trained to respond for 0.32 mg/kg/iv injection of codeine.

kappa receptor = kappa receptor (Cavia porcellus, UniProt P41144); test: GPI preparation, kappa receptor agonism; type: cell-based, guinea pig; conditions: in words
mu opioid receptor = target: T2, mu opioid receptor (Mus musculus, UniProt P42866); test: Mouse vas deferens preparation (MVD), mu receptor (normorphine); type: cell-based; conditions: in vitro MVD; for Kb: antagonist of normorphine, read-out: ke, μ
T2 construct: mu agonist normorphine
Excerpt: as §1, §2, §3, §4, §5

kappa and mu receptors = test: DMPP stimulated guinea pig ileum (GPI) preparation (kappa and mu test); type: cell-based; conditions: in words
Excerpt: *In the guinea pig ileum preparation (GPI), as described on page 268 of […]

mu receptor = test: GPI preparation, mu receptor agonism; type: cell-based, guinea pig; conditions: in words
delta receptor = target: T3, delta receptor (Mus musculus, UniProt P32300); test: MVD agonist effects of compound I in absence/presence of RX 8008M or naltrexone; type: cell-based
T3 construct: agonism of compound I with delta-selective antagonist RX or mu-selective naltrexone
Excerpt: ^a Groups (n = 2-6) of MVD used in each treatment schedule.
^b IC40 is the concentration of agonist required to reduce the
maximal contraction to electrical stimulation by 40 percent. The slow
values in the presence or absence of the antagonists in the same

T2 sequence (P42866 whole entry): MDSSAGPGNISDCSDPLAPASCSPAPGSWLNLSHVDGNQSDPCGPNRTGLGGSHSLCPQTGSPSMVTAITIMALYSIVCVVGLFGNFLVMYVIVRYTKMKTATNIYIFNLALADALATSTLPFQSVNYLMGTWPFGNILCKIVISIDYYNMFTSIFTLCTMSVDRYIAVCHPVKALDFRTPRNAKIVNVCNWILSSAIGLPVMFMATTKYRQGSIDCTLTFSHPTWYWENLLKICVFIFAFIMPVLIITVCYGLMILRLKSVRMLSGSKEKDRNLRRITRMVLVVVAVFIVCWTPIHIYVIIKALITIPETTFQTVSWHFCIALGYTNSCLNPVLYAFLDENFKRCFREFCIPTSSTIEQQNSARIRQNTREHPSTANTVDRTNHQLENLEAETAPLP
T1 sequence (P32300 whole entry): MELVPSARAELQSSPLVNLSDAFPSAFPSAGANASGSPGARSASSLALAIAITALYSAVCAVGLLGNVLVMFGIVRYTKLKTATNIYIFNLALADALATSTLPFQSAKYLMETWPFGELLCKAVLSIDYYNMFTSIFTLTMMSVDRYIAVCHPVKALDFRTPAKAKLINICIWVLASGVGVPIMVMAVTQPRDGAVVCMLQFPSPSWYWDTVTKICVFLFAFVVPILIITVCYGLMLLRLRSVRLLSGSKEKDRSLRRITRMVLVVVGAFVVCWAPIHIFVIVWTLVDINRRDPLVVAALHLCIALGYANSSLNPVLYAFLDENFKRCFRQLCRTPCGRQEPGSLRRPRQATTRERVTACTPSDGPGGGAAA
T3 sequence (P32300 whole entry): as above
kappa receptor, sequence (P41144 whole entry): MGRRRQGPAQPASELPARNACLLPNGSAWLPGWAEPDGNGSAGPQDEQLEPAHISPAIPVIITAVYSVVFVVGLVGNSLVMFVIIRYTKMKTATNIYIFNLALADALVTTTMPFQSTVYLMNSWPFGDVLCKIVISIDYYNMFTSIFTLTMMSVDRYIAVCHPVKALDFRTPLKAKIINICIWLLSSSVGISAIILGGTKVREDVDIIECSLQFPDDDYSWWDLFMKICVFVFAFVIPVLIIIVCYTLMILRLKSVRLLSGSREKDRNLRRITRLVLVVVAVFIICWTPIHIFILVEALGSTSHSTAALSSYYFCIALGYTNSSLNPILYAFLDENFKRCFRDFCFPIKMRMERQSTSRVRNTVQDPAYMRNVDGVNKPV

SMILES: COc1ccc2c3c1O[C@H]1C(=O)C=C[C@@]4(NC(=O)C=Cc5ccc(Cl)cc5)[C@@H](C2)N(CC2CC2)CC[C@]314 [Ex. 91]
- delta agonism in MVD (delta opioid receptor; in vitro MVD, in words): No d-agonism detected
- EC40 (opioid receptor subtypes; Mus musculus, in vitro MVD, Table 2, read-out: ED40 (μ + k-agonism)): > 300 ng/mL
- MVD activity profile (opioid receptor subtypes; in vitro MVD, in words): Weak μ + k-Agonist

SMILES: O=CN[C@@]12C=CC(=O)[C@@H]3Oc4c(O)ccc5c4[C@@]31CCN(CC1CC1)[C@@H]2C5 [Example 49]
- agonist activity in the RPT test [1]: neither the dehydro compound (Example 49) nor the dihydro compound (Example 108) exhibited agonist activity
- AD50 (RTF test) [2]: 0.132 mg/kg

SMILES: COc1ccc2c3c1O[C@H]1C(=O)CC[C@@]4(NC(=O)C=Cc5ccc(C)cc5)[C@@H](C2)N(CC2CC2)CC[C@]314 [Me dihydro]
- Kb (kappa opioid receptor): 66.3 nM
- Kb (delta opioid receptor; in vitro MVD): 19.3 nM
- rank order of affinities (opioid receptor subtypes; in vitro MVD): mu>delta>kappa
- MVD activity profile (opioid receptor subtypes; in vitro MVD, in words): antagonists
- response rates maintained compared with codeine [3]: appropriately equal to the level of responding maintained by codeine
- kappa agonist activity in GPI (kappa receptor): predominantly kappa partial agonist activity
- Kb (mu opioid receptor): 0.28 nM

SMILES: COc1ccc2c3c1O[C@H]1C(=O)C=C[C@@]4(NC(=O)C=Cc5ccccc5)[C@@H](C2)N(CC2CC2)CC[C@]314 [Ex. 15]
- MVD activity profile (opioid receptor subtypes; in vitro MVD, in words): μ and k-Agonist
- agonist potency relative to normorphine (× NM) (mu opioid receptor): 200 × NM

SMILES: COc1ccc2c3c1O[C@H]1C(=O)CC[C@@]4(NC(=O)C=Cc5ccc(Br)cc5)[C@@H](C2)N(CC2CC2)CC[C@]314 [Br dihydro]
- Kb (kappa opioid receptor): 27.3 nM
- Kb (delta opioid receptor; in vitro MVD): 8.6 nM
- rank order of affinities (opioid receptor subtypes; in vitro MVD): mu>delta>kappa
- MVD activity profile (opioid receptor subtypes; in vitro MVD, in words): antagonists
- agonist activity in MVD (opioid receptor subtypes; in words): negligible agonist activity
- response rates maintained compared with codeine [3]: appropriately equal to the level of responding maintained by codeine
- GPI dose-response curve / agonist activity (kappa and mu receptors): negligible agonist activity
- Kb (mu opioid receptor): 0.32 nM

SMILES: COc1ccc2c3c1O[C@H]1C(=O)C=C[C@@]4(NC(=O)C=Cc5ccc(C)cc5)[C@@H](C2)N(CC2CC2)CC[C@]314 [Ex. 92]
- MVD activity profile (opioid receptor subtypes; in vitro MVD, in words): Partial μ Agonist

SMILES: COc1ccc2c3c1O[C@H]1C(=O)CC[C@@]4(NC(=O)C=Cc5ccc(Cl)cc5)[C@@H](C2)N(CC2CC2)CC[C@]314 [I, 14-β-p-chlorocinnamoylamino-7,8-dihydro-N-cyclopropylmethyl-norcodeinone]
- EC40 (delta opioid receptor; in vitro MVD, Table 2, read-out: ED40 (d-agonism)): 3.1 ng/mL (≈ 5.97 nM)
- delta agonism in MVD (delta opioid receptor; in vitro MVD, in words): delta-agonist activity; also recorded: d-Agonist
- intrinsic activity at delta-receptors, in vitro summary (delta opioid receptor; in words): substantial level of intrinsic activity at delta-receptors
- response rates maintained compared with saline ([3]; 0.0003-0.01 mg/kg, i.v., substituted for codeine, single 130 minute sessions, FIG. 1): identical to those maintained by saline
- mu agonist activity in GPI (mu receptor; DMPP stimulated GPI): low intrinsic activity mu agonist
- intrinsic activity at mu receptors, in vitro summary (mu receptor): low intrinsic acitivity at mu receptors
- GPI dose-response curve / agonist activity (kappa and mu receptors): very shallow dose-response curve
- antagonism of GPI response by RX 8008M (kappa and mu receptors; RX 8008M (25 nM)): atagonised by RX 8008M (25 nM)
- IC40 (delta receptor): 0.098 ng/mL
- IC40 in presence of RX 8008M (delta receptor; MVD, + RX 8008M (10 ng/ml)): 9.15 + 3.4 ng/ml
- IC40 in presence of naltrexone (delta receptor; MVD, + naltrexone (100 ng/ml)): 1.44 + 0.01 ng/ml

SMILES: COc1ccc2c3c1O[C@H]1C(=O)CC[C@@]4(NC(=O)C=Cc5ccccc5)[C@@H](C2)N(CC2CC2)CC[C@]314 [H dihydro]
- delta agonism in MVD (delta opioid receptor; in vitro MVD, in words): No d-agonism detected
- MVD activity profile (opioid receptor subtypes; in vitro MVD, in words): μ Agonist
- agonist potency relative to normorphine (× NM) (mu opioid receptor): 72,000 × NM

SMILES: O=CN[C@@]12CCC(=O)[C@@H]3Oc4c(O)ccc5c4[C@@]31CCN(CC1CC1)[C@@H]2C5 [Example 108]
- agonist activity in the RPT test [1]: neither the dehydro compound (Example 49) nor the dihydro compound (Example 108) exhibited agonist activity
- AD50 (RTF test) [2]: 0.16 mg/kg

SMILES: COc1ccc(C=CC(=O)N[C@@]23CCC(=O)[C@@H]4Oc5c(OC)ccc6c5[C@@]42CCN(CC2CC2)[C@@H]3C6)cc1 [OMe dihydro]
- RTP, percent effect ([1]; at 1 mg/kg, Table 1): 40%
